How the values were obtained:
rat RBC AChE = molecular target: T1, rat RBC AChE (Rattus norvegicus, UniProt P37136); assay: In vitro inhibition of rat erythrocyte (RBC) AChE; type: biochemical
T1 construct: contained 0.005 mg/ml erythrocyte ‘ghost’ membrane protein; tissue BioIVT; host or cells: rat blood; erythrocyte 'ghost' membranes (Sprague-Dawley rats)
Protocol: To perform reverse dosimetry of in vitro AChE inhibition by profenofos, first the in vitro AChE activity in the absence or presence of increasing concentrations of profenofos was determined. For humans, commercially available recombinant AChE was used. For rats, no commercially available recombinant AChE was available, so rat AChE was obtained from rat blood as described below.
AChE activity was expressed as enzyme activity (percent of control). The concentration of profenofos that produced a 50% decrease in AChE activity (IC50) was determined from best‐fit plots of the mean (± SD) percentages of inhibition vs. the 10log logarithm of profenofos concentrations using GraphPad Prism 5, version 5.04 (San Diego, California, USA) equation: Y=100/(1+10^(X-LogIC50)).
Rat blood samples were processed according to a method reported by Larsen et al. ([2019]) with a few modifications to isolate the extrinsic membrane bound AChE. Briefly, the blood sample (2 ml) was centrifuged at 3000g for 15 min to separate plasma and cells. […] Aliquots of erythrocyte ‘ghost’ membrane preparations were used for protein measurement using the Pierce™ BCA Protein Assay Kit (Thermofisher) with BSA as standard for quantification (Lowry et al. [1951]), and for AChE activity assessment.
The effect of profenofos on rat AChE activity was assessed as described above for human recombinant AChE, with a few modifications. […]

brain AChE = conditions: rats, single exposure; ref JMPR [2007]; cited from earlier work
AChE = assay: PBK modeling-facilitated reverse dosimetry and BMD modelling of predicted AChE inhibition in rats; set-up: species or system rat
From the text: In the present study, it was assumed that in vivo dose-dependent AChE inhibition (in blood) depends on the maximum concentration (Cmax) of profenofos reached in the blood. For adequate PBK modeling-facilitated reverse dosimetry, the active (unbound) concentration of a test chemical in the in vitro test system should be linked to the in vivo freely available chemical at the target site. This is important since it is assumed that it is the fraction unbound that causes the effect (AChE inhibition). In the in vitro incubations, a very low concentration of BSA (0.1 mg/mL) is present. Heilmair et al. ([2008]) reported that with such low BSA concentrations, the free concentration of chlorpyrifos oxon is not affected. Furthermore, Rosenfeld and Sultatos ([2006]) found no evidence of binding of paraoxon by BSA even at a higher concentration (1 mg/ml) during incubations. Based on these observations, no significant effect on the free fraction of profenofos in the in vitro AChE inhibition studies is expected, which corroborated with estimations on profenofos binding in the in vitro incubations with help of the online simcyp tool (https://www.certara.com/software/pbpk-modeling-and-simulation/).
By calculating with the PBK model, the external dose required to reach (as unbound Cmax) the concentrations applied in the in vitro test, each in vitro concentration was translated into an in vivo dose. In this way, the concentration–response curves for rat and human AChE inhibition were converted into in vivo dose–response curves for profenofos-induced AChE inhibition in rats and humans, respectively.
To evaluate the performance of the PBK modeling-facilitated reverse dosimetry approach to predict in vivo AChE inhibition, the predicted dose–response curve for rat AChE inhibition upon exposure to profenofos was compared with available in vivo data on AChE inhibition in rats (JMPR [2007]). […]

rat = conditions: oral administration, ref JMPR [2007]; cited from earlier work

T1 sequence (P37136 other isoform, or with tags, fused parts or gaps): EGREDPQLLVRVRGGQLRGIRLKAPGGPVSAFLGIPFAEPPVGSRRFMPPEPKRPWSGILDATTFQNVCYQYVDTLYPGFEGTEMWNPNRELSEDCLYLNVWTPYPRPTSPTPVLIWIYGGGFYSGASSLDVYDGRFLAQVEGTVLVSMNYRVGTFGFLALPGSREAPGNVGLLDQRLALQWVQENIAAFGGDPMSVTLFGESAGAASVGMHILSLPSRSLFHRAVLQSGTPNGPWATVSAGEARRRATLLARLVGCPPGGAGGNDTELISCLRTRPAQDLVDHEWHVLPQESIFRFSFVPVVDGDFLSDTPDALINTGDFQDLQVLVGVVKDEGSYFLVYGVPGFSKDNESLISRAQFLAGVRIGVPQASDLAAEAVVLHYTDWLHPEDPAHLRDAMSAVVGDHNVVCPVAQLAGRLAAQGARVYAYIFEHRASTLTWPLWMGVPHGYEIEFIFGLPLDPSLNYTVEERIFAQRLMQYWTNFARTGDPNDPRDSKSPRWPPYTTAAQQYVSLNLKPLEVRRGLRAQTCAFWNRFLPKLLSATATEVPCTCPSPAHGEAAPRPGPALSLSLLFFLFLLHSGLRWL

CCCSP(=O)(OCC)Oc1ccc(Br)cc1Cl (stereo not drawn) [profenofos, O-(4-bromo-2-chlorophenyl) O-ethyl S-propyl phosphorothioate]
IC50 (rat RBC AChE): 312 nM | NOAEL for inhibition of brain AChE (brain AChE): 100 mg/kg bw | JMPR NOAEL relative to BMDL10 from predicted rat dose-response data (AChE): 200 fold | Predicted rat BMDL10 relative to EFSA ARfD (AChE): ~ 100 fold | US EPA BMDL10 relative to BMDL10 from predicted rat dose-response data (AChE): 4 times | LD50 (rat): 358 to 1178 mg/kg

Reference: paper PMC8032624, “Prediction of dose-dependent in vivo acetylcholinesterase inhibition by profenofos in rats and humans using physiologically based kinetic (PBK) modeling-facilitated reverse dosimetry” (Archives of Toxicology, 2021)
